Reference: patent publication US6603046B1, “Bis-aromatic a,β-unsaturated ketones” (Lica Pharmaceuticals A/S, priority 1992, dated 2003)
Values after ≈ are worked out from the molar mass of the structure shown. Read-outs that look alike come from different tables or passages of the source.

Assays:
L. major promastigotes = experiment: In vitro growth of L. major promastigotes, 3H-thymidine uptake (Example 4); format: cell-based, Leishmania major; conditions: Leishmania major; for IC50: read-out: concentration for 50% inhibition; for inhibition at 1 µg/mL: 1 μg/ml; for inhibition at 2 µg/mL: 2 μg/ml; for inhibition at 5 µg/mL: 5 μg/ml; for inhibition at 10 µg/mL: 10 μg/ml; for inhibition at 20 µg/mL: 20 μg/ml
[1] = Toxicity study in mice, i.v. and oral (Example 21); format: in vivo, NMRI female mice
Experimental: Drug. Licochalcone A solution was prepared as follows: 20 mg of licochalcone A was dissolved in 0.2 ml of ethanol. 60 mg of melted polyoxyethylene (23)lauryletherb (Brij 35) was added. 1.7 ml of phosphate buffer was then added while stirring on a warm plate. pH in the licochalcone A solution was adjusted to 7.3.
Mice. NMRI female mice (30-35 gram) in groups of 4 each were used for these studies. For the oral route experiment, the animals were fasted for 16 hrs with access to drinking water. Licochalcone A was suspended in 2% carboxymethylcellulose in water. This suspension was available for the mice in an amount of 0.1 ml per 10 gram body weight. The animals were observed every day for 7 days. For the intravenous injection experiment the animals were not fasted. Licochalcone A in solution (20 mg/ml) prepared as mentioned above was injected intravenously 0.1 ml per 10 gram body weight over a period of one hour and again 24 hrs later.

[2] = system: human monocytes/macrophages; experiment: Electron microscopy of human monocytes/macrophages with and without ingested L. major (Example 12); conditions: for ultrastructure of macrophage: macrophage alone
[3] = Toxicity study in rats, peroral (Example 21); format: in vivo
Experimental: Study in rats. To 4 rats was administered one dose of 1000 mg per kg body weight perorally.

L. major in U937 cells = experiment: Intracellular parasite killing, parasite survival index (PSI); format: cell-based, Leishmania major; conditions: 1 μg/ml
Experimental: Killing was quantified by a modification of a technique described by Berman et al.
Briefly, 3 days after infection, microtiter well cultures were rinsed once with medium, exposed to 100 μl of prewarmed (37° C.) 0.01% sodium dodecyl-sulfate (SDS) in medium RPMI 1640, and returned to 34° C. for 15 min. By this procedure, macrophages were lysed, according to microscopic observation, and amastigotes were released. 100 μl of medium RPMI 1640 with 20% HFCS were added to each well without removal of the lysing solution. The plates were then transferred to a 26° C. incubator, and amastigotes were left to transform to promastigotes. After 48 h, parasite growth was recorded by adding 1 μCi of ^3H-thymidine (New England Nuclear Corp., Boston, Mass.) to each well. The parasites were harvested 24 h later on glass fiber filters with a harvesting machine (Skatron, Lierbyen, Norway), and ^3H-thymidine incorporation was measured in a liquid scintillation counter (Tricarb; Packard Instrument Co., Inc., Rockville, Md.). The parasite survival index (PSI) was determined. This index is the mean 3H-thymidine incorporation (cpm) in treated infected cells as compared with the untreated infected cells. [formula]

L. major = experiment: In vivo growth of L. major in BALB/c mice (Example 8); set-up: key to amastigotes findings on the impression smear, Spleen / amastigotes findings on the impression smear, Liver: −: no parasite amastigotes detected in 5 fields of microscopical vision; +: parasite amastigotes from 5 fields of microscopical vision < 100; ++: parasite amastigotes from 5 fields of microscopical vision = 100-500; +++: parasite amastigotes from 5 fields of microscopical vision = 500-1000; conditions: for parasitic load of the footpad, 3H-thymidine uptake (mean) / parasitic load of the liver, 3H-thymidine uptake (mean): 42 days
Experimental: Mice. BALB/c female mice aged eight weeks old were used throughout. Parasite. The maintenance, cultivation, and isolation of the promastigote-stage of the parasite L. major (WHO reference vaccine strain) have been described in detail in Example 4. […] The lesions that developed in the footpad were measured with a dial-calliper and expressed as footpad thickness increase (in mm). The footpad thickness of mice was measured before infection and every 3 days after 7 days of infection. From 7 days of infection, mice received licochalcone A injections i.p. or intralesionally once a day. After 42 days of licochalcone A injection, some of the mice were killed and the footpads, spleens and livers removed. The parasite loads in the footpads and livers were estimated by a modification of the method described by Liew et al. 1990. […] Incubation was carried out at 28° C. for 3 days and then pulsed with 1 μCi of ^3H-thymidine. Cultures were harvested 18 h later on filter paper by a cell harvester (Skatron, Lierbyen, Norway), extensively washed with distilled water and counted in a scintillation counter (Minaxi Ti-Carb 4000, United Technologies, Packard, USA). The results were expressed as cpm. The footpads, spleens and livers impression was also estimated. Drugs. One mg of licochalcone A was dissolved in 20 μl of 99% (v/v) ethanol, and then 980 μl of medium 199 was added an the resulting mixture was stored at −20° C. before use.

[4] = system: Non-haemolytic streptacocci; experiment: MIC, macrodilution (Example 17); format: cell-based, Non-haemolytic streptococci; conditions: 1 strain
Bacillus subtilis = experiment: MIC, macrodilution (Example 17); format: cell-based; conditions: 1 strain
[5] = read-out: percentage inhibition of 3H-thymidine uptake (mean ± SEM), 3-day culture
[6] = read-out: percentage inhibition of 3H-thymidine uptake (mean ± SEM), 6-day culture

In the case of `C=CC(C)(C)c1cc(/C=C/C(=O)c2ccc(O)cc2)c(OC)cc1O` [Licochalcone A, licochalcone A], the IC50 (L. major promastigotes; log phase promastigotes) is reported as 2 to 5 µg/mL (≈ 5.91 to 14.8 µM), the inhibition at 1 µg/mL (L. major promastigotes; [5]) is reported as 3.6 ± 11.5% and the inhibition at 2 µg/mL (L. major promastigotes; [5]) is reported as 14.8 ± 21.5%. For the same compound, the inhibition at 5 µg/mL (L. major promastigotes; [5]) was 63.9 ± 13%, the inhibition at 10 µg/mL (L. major promastigotes; [5]) was 91.9 ± 8.4% and the inhibition at 20 µg/mL (L. major promastigotes; [5]) was 96 ± 7.5%. For the same compound, the inhibition at 1 µg/mL (L. major promastigotes; [6]) was 15.8 ± 16.5%, the inhibition at 2 µg/mL (L. major promastigotes; [6]) was 42.6 ± 19.7% and the inhibition at 5 µg/mL (L. major promastigotes; [6]) was 80.7 ± 6.4%. For the same compound, the inhibition at 10 µg/mL (L. major promastigotes; [6]) was 96.4 ± 1.2%, the inhibition at 20 µg/mL (L. major promastigotes; [6]) was 99.4 ± 1.1% and the IC50 (L. major promastigotes; stationary phase promastigotes) was roughly 2 µg/mL (≈ 5.91 µM). The “No. dead (after 7 days)” value ([1]; 1000 mg/kg perorally, groups of 4) was 0 (after 7 days), the “No. dead (after 1 hr)” value ([1]; i.v. 20 mg/kg, groups of 4) was 0 and the “No. dead (after 1 hr)” value ([1]; i.v. 50 mg/kg, groups of 4) was 1. The “No. dead (after 1 hr)” value ([1]; i.v. 60 mg/kg, groups of 4) was 4, the “No. dead (after 1 hr)” value ([1]; i.v. 100 mg/kg, groups of 4) was 4 and the “Approximate LD50 i.v.” value ([1]; mice) was roughly 55 mg per kg body weight. For the same compound, the “intracellular amastigotes, electron microscopy” value ([2]; macrophage + L. major, 10 μg/ml) was “Most of the intracellular amastigotes were now killed”, the ultrastructure of macrophage ([2]; 5 μg/ml) was “No changes compared to the control culture” and the ultrastructure of macrophage ([2]; 10 μg/ml) was “No changes compared to the control culture”. The “deaths within one week” value ([3]; 4 rats, one dose of 1000 mg per kg perorally) was “None of the animals died”, the LD50 peroral ([3]; rats) was greater than 1000 mg per kg and the PSI index (L. major in U937 cells) was “about 5%”. For the same compound, the “amastigotes findings on the impression smear, Footpad” value (shortened to “amastigotes findings … Footpad”) (L. major; 20 μg intralesional) was “+ (parasite amastigotes from 5 fields of microscopical vision < 100)”, the “amastigotes findings on the impression smear, Liver” value (from here on “amastigotes findings … Liver”) (L. major; 20 μg intralesional) was “+ (parasite amastigotes from 5 fields of microscopical vision < 100)” and the “amastigotes findings on the impression smear, Spleen” value (shortened to “amastigotes findings … Spleen”) (L. major; 20 μg intralesional) was “+ (parasite amastigotes from 5 fields of microscopical vision < 100)”. The “parasitic load of the footpad, 3H-thymidine uptake (mean)” value (“parasitic load of the footpad” for short) (L. major; 20 μg intralesional once a day) was 243.5 ×10^3 cpm, the “parasitic load of the liver, 3H-thymidine uptake (mean)” value (“parasitic load of the liver” for short) (L. major; 20 μg intralesional once a day) was 10.8 ×10^3 cpm and the “amastigotes findings … Footpad” value (L. major; 50 μg i.p.) was “+ (parasite amastigotes from 5 fields of microscopical vision < 100)”. For the same compound, the “amastigotes findings … Liver” value (L. major; 50 μg i.p.) was “−”, the “amastigotes findings … Spleen” value (L. major; 50 μg i.p.) was “−” and the “parasitic load of the footpad” value (L. major; 50 μg i.p. once a day) was 58.0 ×10^3 cpm. For the same compound, the “parasitic load of the liver” value (L. major; 50 μg i.p. once a day) was 11.7 ×10^3 cpm, the “amastigotes findings … Footpad” value (L. major; 50 μg intralesional) was “+ (parasite amastigotes from 5 fields of microscopical vision < 100)” and the “amastigotes findings … Liver” value (L. major; 50 μg intralesional) was “+ (parasite amastigotes from 5 fields of microscopical vision < 100)”. For the same compound, the “amastigotes findings … Spleen” value (L. major; 50 μg intralesional) was “+ (parasite amastigotes from 5 fields of microscopical vision < 100)”, the “parasitic load of the footpad” value (L. major; 50 μg intralesional once a day) was 282.6 ×10^3 cpm and the “parasitic load of the liver” value (L. major; 50 μg intralesional once a day) was 20.8 ×10^3 cpm. For the same compound, the “amastigotes findings … Footpad” value (L. major; 100 μg i.p.) was “+ (parasite amastigotes from 5 fields of microscopical vision < 100)”, the “amastigotes findings … Liver” value (L. major; 100 μg i.p.) was “−” and the “amastigotes findings … Spleen” value (L. major; 100 μg i.p.) was “−”. For the same compound, the “parasitic load of the footpad” value (L. major; 100 μg i.p. once a day) was 89.0 ×10^3 cpm, the “parasitic load of the liver” value (L. major; 100 μg i.p. once a day) was 12.8 ×10^3 cpm and the MIC [4] was 4 µg/mL (≈ 11.8 µM). For the same compound, the MIC (Bacillus subtilis) was 4 µg/mL (≈ 11.8 µM).
